# Test results: patent US20140005163A1 (NOVARTIS AG, priority 2010, published 2014)
# Legend:
# PI3K alpha = target: T1, PI3K alpha (Homo sapiens, UniProt P42336); test: PI3K alpha kinase assay (Kinase-Glo luminescence); type: biochemical
# T1 construct: p85(iSH2) fusion partner (see partner chain) (N); His tag (C); made in house; host or cells: baculovirus; Tn5 (Trichoplusia ni) or TiniPro insect cells
# Procedure, shortened: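 PI3K alpha at 10 nM with 1 μM ATP and 10 μg/mL phosphatidylinositol in 10 mM TRIS pH 7.5, 3 mM MgCl2, 50 mM NaCl, 0.05% CHAPS, 1 mM DTT, 60 min at room temperature. Remaining ATP read by Kinase-Glo luminescence. IC50 by 4-parameter fit over 8 concentrations.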
# PI3K beta = target: T2, PI3K beta (Homo sapiens, UniProt P42338); test: PI3K beta kinase assay (Kinase-Glo luminescence); type: biochemical
# T2 construct: for the full-length p110-b subunit are generated and fused by overlapping PCR; p85(iSH2) fusion partner (see partner chain) (N); His tag (C); made in house; host or cells: baculovirus; Tn5 (Trichoplusia ni) or TiniPro insect cells
# T2 sequence (P42338 with tags, fused parts or gaps limits assumed): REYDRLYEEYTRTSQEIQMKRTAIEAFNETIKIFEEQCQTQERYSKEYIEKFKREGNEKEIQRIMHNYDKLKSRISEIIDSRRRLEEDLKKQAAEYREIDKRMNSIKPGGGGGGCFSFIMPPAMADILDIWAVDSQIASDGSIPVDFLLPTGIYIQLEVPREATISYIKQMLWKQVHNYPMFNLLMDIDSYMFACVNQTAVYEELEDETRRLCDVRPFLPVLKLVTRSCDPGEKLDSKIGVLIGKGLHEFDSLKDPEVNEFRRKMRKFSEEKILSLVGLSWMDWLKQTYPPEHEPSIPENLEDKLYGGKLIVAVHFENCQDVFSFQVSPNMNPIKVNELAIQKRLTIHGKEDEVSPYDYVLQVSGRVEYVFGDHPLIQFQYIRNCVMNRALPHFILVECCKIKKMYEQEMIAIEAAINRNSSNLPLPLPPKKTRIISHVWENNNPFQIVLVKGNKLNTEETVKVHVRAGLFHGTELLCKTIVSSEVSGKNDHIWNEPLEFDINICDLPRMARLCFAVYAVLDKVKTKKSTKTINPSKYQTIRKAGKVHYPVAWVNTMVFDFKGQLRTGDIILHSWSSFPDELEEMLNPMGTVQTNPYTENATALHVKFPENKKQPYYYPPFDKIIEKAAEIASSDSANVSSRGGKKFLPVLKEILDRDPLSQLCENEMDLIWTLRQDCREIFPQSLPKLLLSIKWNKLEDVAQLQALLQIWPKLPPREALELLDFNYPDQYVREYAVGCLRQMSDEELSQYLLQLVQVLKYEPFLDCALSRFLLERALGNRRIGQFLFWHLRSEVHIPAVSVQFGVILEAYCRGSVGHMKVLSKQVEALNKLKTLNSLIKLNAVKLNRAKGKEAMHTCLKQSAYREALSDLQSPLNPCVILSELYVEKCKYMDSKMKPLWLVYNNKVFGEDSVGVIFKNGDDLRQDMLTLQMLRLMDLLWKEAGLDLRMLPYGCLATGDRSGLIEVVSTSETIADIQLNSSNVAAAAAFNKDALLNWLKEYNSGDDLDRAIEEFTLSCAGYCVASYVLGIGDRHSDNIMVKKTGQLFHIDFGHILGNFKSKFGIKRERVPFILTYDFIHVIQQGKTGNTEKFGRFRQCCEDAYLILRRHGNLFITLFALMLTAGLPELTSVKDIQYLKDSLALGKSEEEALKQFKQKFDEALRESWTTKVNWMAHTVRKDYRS
# Procedure, shortened: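 p110β full-length/p85 iSH2 construct (BV-949), 25 nM, with 1 μM ATP and 10 μg/mL phosphatidylinositol in 10 mM Tris pH 7.5, 3 mM MgCl2, 50 mM NaCl, 0.05% CHAPS, 1 mM DTT. 60 min at room temperature; ATP remaining read by Kinase-Glo luminescence. IC50 from 8-point four-parameter logistic fit.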
# PI3K delta = target: T3, PI3K delta (Homo sapiens, UniProt O00329); test: PI3K delta kinase assay (Kinase-Glo luminescence); type: biochemical
# T3 construct: for the full-length p110-d subunit are generated and fused by overlapping PCR; p85(iSH2) fusion partner (see partner chain) (N); His tag (C); made in house; host or cells: baculovirus; Tn5 (Trichoplusia ni) or TiniPro insect cells
# T3 sequence (O00329 with tags, fused parts or gaps limits assumed): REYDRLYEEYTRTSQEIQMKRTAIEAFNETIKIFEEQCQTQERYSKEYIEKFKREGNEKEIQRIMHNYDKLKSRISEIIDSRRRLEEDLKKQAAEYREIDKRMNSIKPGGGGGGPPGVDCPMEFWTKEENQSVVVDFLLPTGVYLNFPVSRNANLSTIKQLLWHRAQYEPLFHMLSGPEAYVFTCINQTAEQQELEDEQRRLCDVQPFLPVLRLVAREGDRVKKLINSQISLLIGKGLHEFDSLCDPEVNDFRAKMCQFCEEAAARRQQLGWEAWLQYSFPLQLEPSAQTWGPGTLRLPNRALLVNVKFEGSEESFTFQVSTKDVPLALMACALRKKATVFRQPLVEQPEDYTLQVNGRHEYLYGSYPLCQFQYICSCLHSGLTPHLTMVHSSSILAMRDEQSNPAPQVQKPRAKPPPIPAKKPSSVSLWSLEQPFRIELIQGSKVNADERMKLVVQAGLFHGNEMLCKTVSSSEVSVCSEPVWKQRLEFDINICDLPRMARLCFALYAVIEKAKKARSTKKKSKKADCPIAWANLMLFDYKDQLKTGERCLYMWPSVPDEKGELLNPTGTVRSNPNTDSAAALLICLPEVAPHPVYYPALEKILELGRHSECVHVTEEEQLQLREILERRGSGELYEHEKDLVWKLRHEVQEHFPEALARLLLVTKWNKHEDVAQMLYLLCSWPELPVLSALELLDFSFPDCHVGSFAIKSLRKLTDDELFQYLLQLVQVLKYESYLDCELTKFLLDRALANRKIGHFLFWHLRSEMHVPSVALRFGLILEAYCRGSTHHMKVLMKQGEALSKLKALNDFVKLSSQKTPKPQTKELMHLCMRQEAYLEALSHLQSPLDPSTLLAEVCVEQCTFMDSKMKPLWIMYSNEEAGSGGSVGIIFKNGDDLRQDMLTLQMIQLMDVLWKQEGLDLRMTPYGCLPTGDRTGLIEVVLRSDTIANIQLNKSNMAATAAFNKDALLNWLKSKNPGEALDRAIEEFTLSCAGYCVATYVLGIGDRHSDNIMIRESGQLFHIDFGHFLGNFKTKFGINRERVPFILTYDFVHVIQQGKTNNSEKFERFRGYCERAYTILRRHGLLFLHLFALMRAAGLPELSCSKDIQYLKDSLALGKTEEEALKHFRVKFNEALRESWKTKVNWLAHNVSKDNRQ
# Procedure, shortened: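 Construct BV-1060, p85 iSH2–linker–full-length p110δ, His-tagged, at 10 nM, with 1 μM ATP and 10 μg/mL phosphatidylinositol in pH 7.5 Tris, 3 mM MgCl2, 50 mM NaCl, 0.05% CHAPS. Run 60 min at room temperature; remaining ATP read by Kinase-Glo luminescence; IC50 from 4-parameter logistic fit of 8 concentrations.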
# mTOR = target: T4, mTOR (Homo sapiens, UniProt P42345); test: Biochemical assay for m-TOR by TR-FRET; details: 8 μM ATP, 400 nM GFP-4EBP1, 0.5 nM mTOR
# T4 construct: purchased Invitrogen Corporation (Carlsbad/CA, USA) PV4753
# T4 sequence (P42345 1360-2549 limits assumed): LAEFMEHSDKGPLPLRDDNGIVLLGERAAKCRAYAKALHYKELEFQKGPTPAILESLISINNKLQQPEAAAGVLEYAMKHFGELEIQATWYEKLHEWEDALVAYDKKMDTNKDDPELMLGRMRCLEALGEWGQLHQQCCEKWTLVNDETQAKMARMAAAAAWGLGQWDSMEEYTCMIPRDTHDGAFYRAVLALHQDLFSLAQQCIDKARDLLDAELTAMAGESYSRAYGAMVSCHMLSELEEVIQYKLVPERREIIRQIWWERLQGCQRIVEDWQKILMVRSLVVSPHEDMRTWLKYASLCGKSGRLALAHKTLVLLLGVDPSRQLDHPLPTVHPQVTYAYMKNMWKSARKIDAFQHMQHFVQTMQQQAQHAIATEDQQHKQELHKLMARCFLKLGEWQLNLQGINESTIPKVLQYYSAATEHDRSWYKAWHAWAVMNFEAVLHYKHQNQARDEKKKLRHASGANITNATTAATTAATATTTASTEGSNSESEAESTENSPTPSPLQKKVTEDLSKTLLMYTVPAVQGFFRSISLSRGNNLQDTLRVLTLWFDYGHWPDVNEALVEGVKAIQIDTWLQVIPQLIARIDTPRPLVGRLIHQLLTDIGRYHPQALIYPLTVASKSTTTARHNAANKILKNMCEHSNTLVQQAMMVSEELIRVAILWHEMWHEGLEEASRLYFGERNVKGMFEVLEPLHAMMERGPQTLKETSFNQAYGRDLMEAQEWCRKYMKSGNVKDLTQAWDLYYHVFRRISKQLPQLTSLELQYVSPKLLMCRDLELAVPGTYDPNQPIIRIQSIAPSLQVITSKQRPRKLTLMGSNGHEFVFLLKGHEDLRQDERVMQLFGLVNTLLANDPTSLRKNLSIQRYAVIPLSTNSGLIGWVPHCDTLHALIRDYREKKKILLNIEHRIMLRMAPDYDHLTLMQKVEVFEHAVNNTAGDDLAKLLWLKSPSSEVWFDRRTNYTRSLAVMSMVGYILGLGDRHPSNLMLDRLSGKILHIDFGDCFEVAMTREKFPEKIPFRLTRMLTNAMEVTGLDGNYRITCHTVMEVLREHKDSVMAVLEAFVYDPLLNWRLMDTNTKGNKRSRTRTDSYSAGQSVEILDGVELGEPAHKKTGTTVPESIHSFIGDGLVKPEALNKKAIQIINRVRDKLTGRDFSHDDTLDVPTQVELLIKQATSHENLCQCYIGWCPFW
# Procedure, shortened: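 mTOR (0.5 nM) was incubated at rt with ATP (8 μM final) and GFP-4EBP1 (400 nM final) in 50 mM HEPES pH 7.5, 10 mM MnCl2, 50 mM NaCl, 1 mM EGTA, 1 mM DTT. EDTA stop with Tb3+-anti-p4EBP1 [pThr46] antibody (0.5 nM); TR-FRET read 15 min later.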
# T1 sequence (P42336 with tags, fused parts or gaps limits assumed): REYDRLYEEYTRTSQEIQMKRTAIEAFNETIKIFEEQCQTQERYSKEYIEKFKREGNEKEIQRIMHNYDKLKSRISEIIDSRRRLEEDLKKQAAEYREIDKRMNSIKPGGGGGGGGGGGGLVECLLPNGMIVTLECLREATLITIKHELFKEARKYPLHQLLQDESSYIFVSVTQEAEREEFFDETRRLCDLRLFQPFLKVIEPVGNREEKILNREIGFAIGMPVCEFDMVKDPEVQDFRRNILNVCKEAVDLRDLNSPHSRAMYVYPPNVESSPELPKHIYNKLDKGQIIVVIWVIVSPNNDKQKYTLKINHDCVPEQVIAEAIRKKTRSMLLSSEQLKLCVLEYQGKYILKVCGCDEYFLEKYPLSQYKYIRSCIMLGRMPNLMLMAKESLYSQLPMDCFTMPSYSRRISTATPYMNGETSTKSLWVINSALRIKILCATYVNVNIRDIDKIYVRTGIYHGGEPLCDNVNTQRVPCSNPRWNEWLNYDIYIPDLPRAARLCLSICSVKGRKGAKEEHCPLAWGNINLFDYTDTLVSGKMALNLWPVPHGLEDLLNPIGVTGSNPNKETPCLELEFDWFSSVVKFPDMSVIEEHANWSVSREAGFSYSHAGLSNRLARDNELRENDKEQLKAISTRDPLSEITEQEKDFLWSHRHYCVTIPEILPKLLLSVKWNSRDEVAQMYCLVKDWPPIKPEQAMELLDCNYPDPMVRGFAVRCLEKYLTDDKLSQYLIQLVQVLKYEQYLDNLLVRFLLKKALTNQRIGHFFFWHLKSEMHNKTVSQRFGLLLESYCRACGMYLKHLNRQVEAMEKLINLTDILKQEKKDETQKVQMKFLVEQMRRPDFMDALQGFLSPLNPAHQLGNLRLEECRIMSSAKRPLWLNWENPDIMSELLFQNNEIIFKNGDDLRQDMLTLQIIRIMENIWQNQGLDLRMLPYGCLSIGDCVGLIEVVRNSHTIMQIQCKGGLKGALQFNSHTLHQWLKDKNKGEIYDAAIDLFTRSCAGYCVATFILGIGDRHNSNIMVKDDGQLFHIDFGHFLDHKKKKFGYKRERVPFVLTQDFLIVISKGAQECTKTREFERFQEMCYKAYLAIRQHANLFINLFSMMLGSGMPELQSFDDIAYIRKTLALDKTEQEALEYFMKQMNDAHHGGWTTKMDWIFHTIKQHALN
Structure (SMILES),IC50 (PI3K alpha) [nM],IC50 (PI3K beta) [nM],IC50 (PI3K delta) [nM],IC50 (mTOR) [nM]
"COc1ncc(-c2ccc3ncc4c(c3c2)n(-c2cn(C)nc2C)c(=O)n4C)cc1N(C)C(C)=O [Example 62, N-{5-[1-(1,3-Dimethyl-1H-pyrazol-4-yl)-3-methyl-2-oxo-2,3-dihydro-1H-imidazo[4,5-c]quinolin-8-yl]-2-methoxy-pyridin-3-yl}-N-methyl-acetamide]",61,83,16,642
"CNc1ncc(-c2ccc3ncc4c(c3c2)n(-c2cn(C(C)C)nc2C)c(=O)n4C)cc1CO [Example 171, 8-(5-Hydroxymethyl-6-methylamino-pyridin-3-yl)-1-(1-isopropyl-3-methyl-1H-pyrazol-4-yl)-3-methyl-1,3-dihydro-imidazo[4,5-c]quinolin-2-one]",32,145,14,< 3
"Cc1nn(C)cc1-n1c(=O)n(C)c2cnc3ccc(-c4cnc(N)c(C(=O)NC(C)C)c4)cc3c21 [Example 225, 2-Amino-5-[1-(1,3-dimethyl-1H-pyrazol-4-yl)-3-methyl-2-oxo-2,3-dihydro-1H-imidazo[4,5-c]quinolin-8-yl]-N-isopropyl-nicotinamide]",20,44,26,26
"C=CCn1c(=O)n(-c2cn(C)nc2C)c2c3cc(-c4cncc(N)c4)ccc3ncc21 [Example 246, 3-Allyl-8-(5-amino-pyridin-3-yl)-1-(1,3-dimethyl-1H-pyrazol-4-yl)-1,3-dihydro-imidazo[4,5-c]quinolin-2-one]",28,82,10,147
"CCOC(C)(C)c1cncc(-c2ccc3ncc4c(c3c2)n(-c2cn(C)nc2C)c(=O)n4C)c1 [Example 240, 1-(1,3-Dimethyl-1H-pyrazol-4-yl)-8-[5-(1-ethoxy-1-methyl-ethyl)-pyridin-3-yl]-3-methyl-1,3-dihydro-imidazo[4,5-c]quinolin-2-one]",6,91,< 3,79
"Cc1nn(C(C)C)cc1-n1c(=O)n(C)c2cnc3ccc(-c4cnc(N(C)C)nc4)cc3c21 [Example 6.1, 8-(2-Dimethylamino-pyrimidin-5-yl)-1-(1-isopropyl-3-methyl-1H-pyrazol-4-yl)-3-methyl-1,3-dihydro-imidazo[4,5-c]quinolin-2-one]",29,227,28,30
"CCNc1cc(-c2ccc3ncc4c(c3c2)n(-c2cn(C)nc2C)c(=O)n4C)cnc1COC [Example 156, 1-(1,3-Dimethyl-1H-pyrazol-4-yl)-8-(5-ethylamino-6-methoxymethyl-pyridin-3-yl)-3-methyl-1,3-dihydro-imidazo[4,5-c]quinolin-2-one]",16,29,17,5
"[2H]C([2H])([2H])Nc1ncc(-c2ccc3ncc4c(c3c2)n(-c2c(C)nn(C)c2C)c(=O)n4C)cc1C(F)(F)F [Example 143, 3-Methyl-8-(6-trideuteromethylamino-5-trifluoromethyl-pyridin-3-yl)-1-(1,3,5-trimethyl-1H-pyrazol-4-yl)-1,3-dihydro-imidazo[4,5-c]quinolin-2-one]",19,111,10,113
"Cc1nn(C)cc1-n1c(=O)n(C)c2cnc3ccc(-c4cncc(OC(CF)CF)c4)cc3c21 [Example 182, 1-(1,3-Dimethyl-1H-pyrazol-4-yl)-8-[5-(2-fluoro-1-fluoromethyl-ethoxy)-pyridin-3-yl]-3-methyl-1,3-dihydro-imidazo[4,5-c]quinolin-2-one]",9,11,8,6
"Cc1nn(C)cc1-n1c(=O)n(C)c2cnc3ccc(-c4cncc(C(C)O)c4)cc3c21 (racemic) [Example 217, (rac)-1-(1,3-Dimethyl-1H-pyrazol-4-yl)-8-[5-(1-hydroxy-ethyl)-pyridin-3-yl]-3-methyl-1,3-dihydro-imidazo[4,5-c]quinolin-2-one]",8,13,19,12
"Cc1nn(C)cc1-n1c(=O)n(C)c2cnc3ccc(-c4cnc(Cl)c(NS(C)(=O)=O)c4)cc3c21 [Example 223, N-{2-Chloro-5-[1-(1,3-dimethyl-1H-pyrazol-4-yl)-3-methyl-2-oxo-2,3-dihydro-1H-imidazo[4,5-c]quinolin-8-yl]-pyridin-3-yl}-methanesulfonamide]",3,7,6,< 3
"Cc1nn(C)cc1-n1c(=O)n(C)c2cnc3ccc(-c4cccnc4)cc3c21 [Example 10.2, 1-(1,3-Dimethyl-1H-pyrazol-4-yl)-3-methyl-8-pyridin-3-yl-1,3-dihydro-imidazo[4,5-c]quinolin-2-one]",16,86,112,48
"COc1ccc(-c2ccc3ncc4c(c3c2)n(-c2c(C)nn(C)c2C)c(=O)n4C)cc1OC [Example 1.9, 8-(3,4-Dimethoxy-phenyl)-3-methyl-1-(1,3,5-trimethyl-1H-pyrazol-4-yl)-1,3-dihydro-imidazo[4,5-c]quinolin-2-one]",28,39,18,308
"CC(=O)Nc1cc(-c2ccc3ncc4c(c3c2)n(-c2cn(C)nc2C)c(=O)n4C)cnc1Cl [Example 222, N-{2-Chloro-5-[1-(1,3-dimethyl-1H-pyrazol-4-yl)-3-methyl-2-oxo-2,3-dihydro-1H-imidazo[4,5-c]quinolin-8-yl]-pyridin-3-yl}-acetamide]",43,134,82,22

# The remaining lines, values ahead:
IC50 (PI3K alpha) [nM],IC50 (PI3K beta) [nM],IC50 (PI3K delta) [nM],IC50 (mTOR) [nM],Structure (SMILES)
13,29,6,56,"CCn1cc(-n2c(=O)n(C)c3cnc4ccc(-c5cncc(C6(C#N)CCC6)c5)cc4c32)c(C)n1 [Example 221.2, 1-{5-[1-(1-Ethyl-3-methyl-1H-pyrazol-4-yl)-3-methyl-2-oxo-2,3-dihydro-1H-imidazo[4,5-c]quinolin-8-yl]-pyridin-3-yl}-cyclobutanecarbonitrile]"
13,578,32,152,"Cc1nn(CC(=O)N(C)C)c(C)c1-n1c(=O)n(C)c2cnc3ccc(-c4cnc(N)c(C(F)(F)F)c4)cc3c21 [Example 25.2, 2-{4-[8-(6-Amino-5-trifluoromethyl-pyridin-3-yl)-3-methyl-2-oxo-2,3-dihydro-imidazo[4,5-c]quinolin-1-yl]-3,5-dimethyl-pyrazol-1-yl}-N,N-dimethyl-acetamide]"
12,16,4,6,"Cc1nn(C(C)C)cc1-n1c(=O)n(C)c2cnc3ccc(-c4cnc(N)c(C(F)(F)F)c4)cc3c21 [Example 25.4, 8-(6-Amino-5-trifluoromethyl-pyridin-3-yl)-1-(1-isopropyl-3-methyl-1H-pyrazol-4-yl)-3-methyl-1,3-dihydro-imidazo[4,5-c]quinolin-2-one]"
43,39,31,5,"CCNc1cc(-c2ccc3ncc4c(c3c2)n(-c2cn(C)nc2Cl)c(=O)n4C)cnc1OC [Example 90.1, 1-(3-Chloro-1-methyl-1H-pyrazol-4-yl)-8-(5-ethylamino-6-methoxy-pyridin-3-yl)-3-methyl-1,3-dihydro-imidazo[4,5-c]quinolin-2-one]"
4,6,< 3,6,"COc1cc(-c2ccc3ncc4c(c3c2)n(-c2cn(C)nc2Cl)c(=O)n4C)cnc1CO [Example 194.2, 1-(3-chloro-1-methyl-1H-pyrazol-4-yl)-8-(6-hydroxymethyl-5-methoxy-pyridin-3-yl)-3-methyl-1,3-dihydro-imidazo[4,5-c]quinolin-2-one]"
33,228,25,34,"CCn1cc(-n2c(=O)n(C)c3cnc4ccc(-c5ccc(CO)nc5)cc4c32)c(C)n1 [Example 16.1, 1-(1-ethyl-3-methyl-1H-pyrazol-4-yl)-8-(6-hydroxymethyl-pyridin-3-yl)-3-methyl-1,3-dihydro-imidazo[4,5-c]quinolin-2-one]"
